Drawing on ChEMBL document CHEMBL1126404, “A novel approach to the site specific delivery of potential HMG-CoA reductase inhibitors” (Bioorg Med Chem Lett, 1992), this text covers Activity (nM min-1 mg-1) and IC50 for 4 molecules.

Test [1] concerns the target T1, 3-hydroxy-3-methylglutaryl-coenzyme A reductase (Rattus norvegicus) (UniProt P51639).
T1 sequence (whole entry): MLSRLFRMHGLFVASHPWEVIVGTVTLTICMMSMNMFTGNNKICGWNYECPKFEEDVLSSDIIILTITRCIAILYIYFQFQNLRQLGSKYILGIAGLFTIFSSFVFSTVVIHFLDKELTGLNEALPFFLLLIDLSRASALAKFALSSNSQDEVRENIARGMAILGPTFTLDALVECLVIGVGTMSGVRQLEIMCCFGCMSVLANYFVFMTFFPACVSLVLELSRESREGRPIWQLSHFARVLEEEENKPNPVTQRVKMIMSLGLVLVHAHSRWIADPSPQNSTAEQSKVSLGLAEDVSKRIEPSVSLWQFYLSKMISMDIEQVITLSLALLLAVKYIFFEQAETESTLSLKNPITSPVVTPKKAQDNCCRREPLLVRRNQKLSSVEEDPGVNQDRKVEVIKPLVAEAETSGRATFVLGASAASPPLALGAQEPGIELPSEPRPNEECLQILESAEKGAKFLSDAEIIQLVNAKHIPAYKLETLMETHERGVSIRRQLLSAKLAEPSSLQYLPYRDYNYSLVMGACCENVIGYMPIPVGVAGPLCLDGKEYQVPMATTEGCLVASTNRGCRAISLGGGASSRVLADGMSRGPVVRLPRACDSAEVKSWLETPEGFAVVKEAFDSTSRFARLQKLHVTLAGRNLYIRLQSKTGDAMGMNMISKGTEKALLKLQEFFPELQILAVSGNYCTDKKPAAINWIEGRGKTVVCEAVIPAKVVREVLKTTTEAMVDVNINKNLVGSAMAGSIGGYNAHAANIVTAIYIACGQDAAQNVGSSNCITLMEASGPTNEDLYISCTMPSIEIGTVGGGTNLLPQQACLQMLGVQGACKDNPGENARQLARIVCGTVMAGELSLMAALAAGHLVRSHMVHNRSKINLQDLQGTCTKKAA
Kind of test: The compound was evaluated for Inhibition of rat hepatic microsomal HMG-CoA reductase at log concentration of ~-6/M.

Test [2] concerns the target T1, 3-hydroxy-3-methylglutaryl-coenzyme A reductase (Rattus norvegicus).
Description: The compound was evaluated for Inhibition of rat hepatic microsomal HMG-CoA reductase at log concentration of ~-10/M.
The target is the same in test [3]. The source holds these as a separate data set.
Description: The compound was evaluated for Inhibition of rat hepatic microsomal HMG-CoA reductase at log concentration of ~-11/M
Test [4] has the same target. This is another data set of the same source.
Description: The compound was evaluated for Inhibition of rat hepatic microsomal HMG-CoA reductase at log concentration of ~-9/M.
The target is the same in test [5]. Kind of test: The compound was evaluated for Inhibition of rat hepatic microsomal HMG-CoA reductase at log concentration of ~-3/M.
For test [6] the target is unchanged. Kind of test: The compound was evaluated for Inhibition of rat hepatic microsomal HMG-CoA reductase at log concentration of ~-4/M.
Test [7] has as its target T2, 3-hydroxy-3-methylglutaryl-coenzyme A reductase (Rattus norvegicus, UniProt P51639).
T2 sequence (P51639 whole entry): T1 sequence (whole entry)
In words: The compound was evaluated for Inhibition of rat hepatic microsomal HMG-CoA reductase.

For test [8], the target named is T1, 3-hydroxy-3-methylglutaryl-coenzyme A reductase (Rattus norvegicus). In words: The compound was evaluated for Inhibition of rat hepatic microsomal HMG-CoA reductase at log concentration of ~-5/M.
The target is the same in test [9]. Kind of test: The compound was evaluated for Inhibition of rat hepatic microsomal HMG-CoA reductase at log concentration of ~-6/M.
Test [10] shares this target. In words: The compound was evaluated for Inhibition of rat hepatic microsomal HMG-CoA reductase at log concentration of ~-8/M.
The target is the same in test [11]. In words: The compound was evaluated for Inhibition of rat hepatic microsomal HMG-CoA reductase at log concentration of ~-3/M.
Test [12] has the same target. In words: The compound was evaluated for Inhibition of rat hepatic microsomal HMG-CoA reductase at log concentration of ~-4/M.
The target is the same in test [13]. Kind of test: The compound was evaluated for Inhibition of rat hepatic microsomal HMG-CoA reductase at log concentration of ~-5/M.
For test [14] the target is unchanged. Kind of test: The compound was evaluated for Inhibition of rat hepatic microsomal HMG-CoA reductase at log concentration of ~-7/M.
Test [15] shares this target. In words: The compound was evaluated for Inhibition of rat hepatic microsomal HMG-CoA reductase at log concentration of ~-8/M.

Consider `CC[C@@H](C)C(=O)O[C@H]1C[C@@H](C)C=C2C=C[C@H](C)[C@H](CC[C@@H](O)C[C@@H](O)CC(=O)O)[C@H]21`, for which the Activity (nM min-1 mg-1) was 0 in [1], 280 in test [2], 280 in test [3] and 240 in test [4].

For `CC(=O)O[C@@H]1CC[C@@]2(C)[C@@H](C1)C[C@@H](OC(C)=O)[C@@H]1[C@@H]2C[C@H](OC(C)=O)[C@]2(C)[C@@H]([C@H](C)CC(O)CC(O)CC(=O)O)CC[C@@H]12` (some centres not stated), the Activity (nM min-1 mg-1) in [5] came to 0; in [6], 80; in test [8] it was 240; in test [9], 280; in [10], 300. Moreover, 39.2 µM corresponded to half-maximal inhibition in test [7] (IC50).

Turning to `COC(=O)CC(=O)CC(O)C[C@@H](C)[C@H]1CC[C@H]2[C@@H]3[C@H](OC(C)=O)C[C@@H]4C[C@H](OC(C)=O)CC[C@]4(C)[C@H]3C[C@H](OC(C)=O)[C@]12C` (some centres not stated), the Activity (nM min-1 mg-1) in [11] turned out to be 250; in test [12], 290; in [13], 290; in test [1] it was 300; in test [14], 290; in [15], 280.

With `C[C@H](CC(O)CC(O)CC(=O)O)[C@H]1CC[C@H]2[C@@H]3[C@H](O)C[C@@H]4C[C@H](O)CC[C@]4(C)[C@H]3C[C@H](OC(=O)C(C)(C)C)[C@]12C` (some centres not stated), the Activity (nM min-1 mg-1) stood at 0 in test [12]; 30 in test [13]; 150 in test [1]; 270 in test [14]; 280 in test [10]. Inhibition in test [7] was half-maximal at 12.3 µM (IC50).
